From PubChem BioAssay (NCI) come the findings set out here.

Holding throughout (test): growth of human tumour cells (NCI), 48 h
Assay [1] has as its system RXF 393 renal.
Assay [2] concerns KM12 colon.
Assay [3] deals with HL-60(TB) leukemia.
The subject of assay [4] is SF-539 CNS.
Assay [5] deals with UACC-257 melanoma.
Assay [6] relates to BT-549 breast.
Assay [7] relates to NCI/ADR-RES ovarian.
Assay [8] concerns RPMI-8226 leukemia.
For assay [9], the system named is SNB-19 CNS.
Assay [10] relates to SF-295 CNS.

“And” between values parts separate entries of the source, which are not always exact repeats. Equal entries are not always repeated.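 All cell lines were grown in 96-well plates and treated with compound for 48 hours. At the GI50, growth is halved. TGI is the concentration that stops growth completely.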

Consider `O=C1c2ccccc2C(=O)c2c1oc1c2c(=O)[nH]c2ccc(Cl)cc21`, for which the GI50 was 210 nM in [1]; 447 nM in assay [2]; 1700 nM in [3]; 229 nM in assay [4]; 1330 nM in assay [5]; 304 nM in [6]. For the same molecule, the GI50 was 354 nM in assay [7], 387 nM in assay [8], 312 nM in assay [9] and 637 nM in assay [10]. The TGI in assay [1] is 577 nM; in assay [2] it was 3020 nM; in [3] it was 5250 nM; in assay [4] it was 566 nM; in [5] it was 3360 nM; in assay [6] it was 1310 nM. Moreover, the TGI was determined as 1770 nM in assay [7], 2640 nM in [8], 1100 nM in assay [9] and 2290 nM in assay [10].

Consider `S=C1SCN(Cc2ccccc2)CN1Cc1ccccc1`, for which the GI50 in assay [1] was 1550 nM; in assay [2] it was 2100 nM; in assay [3] it was 1170 nM; in assay [4] it was 17200 nM; in assay [5], 16000 nM; in [6], 6510 nM. In addition, the GI50 in assay [7] is 33100 nM; in assay [8], 119 nM; in assay [9] it was greater than 54700 nM; in assay [10] it was 24400 nM. The TGI in [1] is 6320 nM; in assay [2], 6840 nM; in assay [3], 3830 nM; in [4], greater than 61300 nM; in assay [5], 33200 nM; in assay [6], 33400 nM. The TGI is greater than 100000 nM in assay [7], 415 nM in assay [8], greater than 100000 nM in assay [9] and greater than 90000 nM in assay [10].

Regarding `CCOC(=O)Nc1ccc2c(c1)C(=O)N(CC)c1ccccc1O2`, the GI50 in assay [1] is 27.7 nM; in assay [2], 66.1 nM; in assay [3], 54.5 nM; in assay [4], 94.2 nM; in [5], 35600 nM; in assay [6] it was 184 nM. The GI50 in assay [7] was 124 nM; in assay [8], 126 nM; in assay [9], 268 nM; in assay [10], 84.6 nM. The TGI in assay [1] was 54900 nM; in [2], greater than 100000 nM; in assay [3], 155 nM; in assay [4] it was 643 nM; in assay [5], greater than 100000 nM; in assay [6], 16900 nM. Besides, the TGI in assay [7] was greater than 100000 nM; in [8], greater than 100000 nM; in assay [9], greater than 100000 nM; in assay [10], 790 nM.

Take `O=C(Nc1cn[nH]c1-c1nc2ccc(CN3CCOCC3)cc2[nH]1)NC1CC1`: the GI50 in assay [1] is 241 nM and 287 nM; in [2], 634 nM and 1720 nM; in assay [3] it was 1940 nM and 7380 nM; in assay [4] it was 262 nM and 688 nM; in assay [5] it was 1720 nM and > 10000 nM; in assay [6] it was 385 nM and 963 nM. In addition, the GI50 in assay [7] is 12100 nM and > 10000 nM; in assay [8], 7050 nM and > 10000 nM; in assay [9], 1160 nM and 2620 nM; in [10], 195 nM and 1090 nM. For the same molecule, the TGI in assay [1] was 1790 nM and 2170 nM; in assay [2] it was 4060 nM and > 10000 nM; in [3], 5150 nM and > 10000 nM; in assay [4], 1350 nM and 3700 nM; in assay [5] it was 7760 nM and > 10000 nM; in assay [6] it was 2130 nM and > 10000 nM. Also, the TGI was greater than 86700 nM in [7]; 28300 nM and > 10000 nM in [8]; 11300 nM and > 10000 nM in [9]; 1500 nM and 4670 nM in assay [10].

Consider `O=C(c1ccc2ccccc2c1)c1c(C(F)(F)F)n([O-])c2cc(C(F)(F)F)ccc2[n+]1=O`, for which the GI50 in assay [1] was 1500 nM; in [2], 1690 nM; in assay [3] it was 1540 nM; in assay [4], 1710 nM; in assay [5] it was 1220 nM; in assay [6], 1430 nM. The GI50 in [7] was 2080 nM; in assay [8] it was 1250 nM; in [9], 1880 nM; in [10], 1450 nM. Besides, the TGI in assay [1] was found to be 3160 nM; in [2], 3220 nM; in assay [3] it was 3590 nM; in assay [4] it was 3230 nM; in assay [5], 2690 nM; in assay [6], 2900 nM. For the same molecule, the TGI stood at 4800 nM in assay [7], 3370 nM in [8], 3430 nM in assay [9] and 2840 nM in assay [10].

Consider `CCc1cccc(NC(=O)Nc2ccc(Oc3ccc4nc(NC(=O)OC)[nH]c4c3)cc2)c1`, for which the GI50 was 2050 nM in assay [1]; 98.5 nM in assay [2]; 2790 nM in assay [3]; 5080 nM in assay [4]; 3580 nM in [5]; 8240 nM in assay [6]. Further, the GI50 in assay [7] is 10500 nM; in assay [8] it was 12500 nM; in [9] it was 10100 nM; in assay [10], 3400 nM. Further, the TGI is 10900 nM in assay [1]; 4940 nM in [2]; greater than 16400 nM in assay [3]; greater than 25000 nM in assay [4]; greater than 22300 nM in [5]; 24400 nM in assay [6]. Also, the TGI in [7] is greater than 25000 nM; in [8], greater than 25000 nM; in [9], greater than 25000 nM; in [10] it was greater than 20400 nM.
